Assay results reported in US5017489A (priority 1988, dated 1991).
Entries after “also recorded” stand apart in the source; their conditions may differ. Read-outs that look alike come from different tables or passages of the source.

Key:
[1] = target: T1, CTL serine esterase (BLT-serine esterase) in extract of murine CTL clone G4 (Mus musculus, UniProt P11032); experiment: biochemical; details: read-out: Percent Inhibition of esterase activity
T1 sequence (P11032 29-260): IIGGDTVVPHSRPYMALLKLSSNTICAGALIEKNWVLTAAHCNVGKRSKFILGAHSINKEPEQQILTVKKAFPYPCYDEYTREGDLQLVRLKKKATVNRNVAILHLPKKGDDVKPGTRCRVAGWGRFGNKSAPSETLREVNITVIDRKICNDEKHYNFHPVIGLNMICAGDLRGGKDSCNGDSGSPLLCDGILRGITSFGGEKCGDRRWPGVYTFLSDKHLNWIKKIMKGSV

[2] = target: T1, CTL serine esterase (BLT-serine esterase) in extract of murine CTL clone G4
G4 cells = experiment: Toxicity of inhibitor for G4 cells (51Cr release, trypan blue recovery); format: cell-based, murine; details: PMSF at the concentrations shown (0.375-3 mM), 3% DMSO
[3] = system: cytolytic activity of human CTLs; experiment: PMSF inhibition of cytolysis by human CTLs (2-h 51Cr-release assay); format: cell-based; details: 15 min in 6 mM PMSF
Description: ^51 Cr-release killing assays were performed as described; when measuring lectin-dependent cytolytic activity, Con A (Vector Laboratories,Inc., Burlingame, CA) was added to a final concentration of 10 μg/ml.
Various numbers of T cells were incubated for 15 min at 37° C. in K medium containing PMSF at 0, 2, 4, and 6 mM (PMSF was added in DMSO; the final concentration of DMSO in all instances was 1%). Cytotoxicity was assayed as above except that a 2 hour assay was used to minimize the effect of new protein synthesis.

[4] = system: lysis of P815 (H-2d) cells by cloned anti-Dd G4 cells
[5] = system: human CTLs and target cells; experiment: Viability of human CTLs (trypan blue exclusion) and targets (51Cr release) after PMSF; details: 15 min in 6 mM PMSF

Compound: Cc1ccc(S(=O)(=O)N[C@@H](CCCCN)C(=O)CCl)cc1 [TLCK, N-α-tosyl lysyl chloromethyl ketone]
- inhibition at 500 µM [1]: 4.6%
- inhibition of murine CTL serine esterase activity (in words) [2]: not and not, however, inhibited
- inhibition of serine esterase (in words) [2]: not inhibited

Compound: O=S(=O)(F)Cc1ccccc1 [PMSF, phenylmethylsulfonyl fluoride]
- added toxicity for G4 cells (51Cr release or reduced recovery of viable cells) (G4 cells): no added toxicity
- reduction of cytotoxicity [3]: approximately 75%
- Percent Inhibition of esterase activity [2]: 97.2
- inhibition of murine CTL serine esterase activity (in words) [2]: blocked completely; also recorded: inhibited; also recorded: completely inhibitable
- inhibition of lysis of P815 cells by G4 cells (in words) ([4]; nontoxic concentrations, G4 preincubated 30 minutes at 37° C.): clearly inhibits lysis
- viability of CTLs (trypan blue exclusion) and targets (release of 51Cr) [5]: not affecting the viability

Compound: α2 macroglobulin
- inhibition of serine esterase (in words) [2]: not inhibited

Compound: aprotinin
- inhibition in vitro of purified BLT serine esterase (in words) [2]: potent inhibitor
- inhibition of serine esterase (in words) [2]: essentially totally inhibited
- inhibition of CTL-mediated lysis (in words) [4]: does not inhibit
- inhibition of cytotoxicity (in words) [4]: appears to inhibit cytotoxicity

Compound: Cc1ccc(S(=O)(=O)N[C@@H](Cc2ccccc2)C(=O)CCl)cc1 [TPCK, N-tosyl-L-phenylalanine chloromethyl ketone]
- inhibition of murine CTL serine esterase activity (in words) ([2]; murine enzyme): not
